From ChEMBL document CHEMBL1201862, “PubChem BioAssay data set” (2004) come the findings set out here.

Test systems include T47D; DMS-273; SNB-78; LXFL 529; DMS-114; M19-MEL; HOP-18; XF498.
What all share (assay): NCI tumour cell line growth inhibition, 48 h

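How tested: cells in 96-well plates exposed to compound for 48 hours at five concentrations. The concentration for 50% growth inhibition is given as GI50.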 The source made the active and inactive calls. Rule as the data show it: active = GI50 up to about 1.1 µM and inactive = higher. Residues, ends and D or L forms follow the SMILES beside them.

Regarding `CC(C)OC(=O)[C@@H]1OC(C)(C)O[C@H]1C(=O)OC(C)C`, in the test with T47D, the GI50 was > 100 µM (inactive).
On to `CC(NC(=O)c1ccccc1)(C(=O)O)C(=O)O`, for which, in the test with T47D, the GI50 was > 100 µM (inactive).
As to `Cn1cnc(CCc2ccccc2)n1`, the GI50 with DMS-273, in the test on SNB-78, in the test on LXFL 529, with DMS-114, in the test with M19-MEL and in the test on HOP-18 was > 100 µM (inactive) throughout.
Regarding `CC(=O)NC(CO)C(=O)NC(Cc1ccc(O)cc1)C(=O)NCC(N)=O` (stereo not drawn) (Ac-Ser-Tyr-Gly-NH2; configuration not given here), in the test with T47D, the GI50 was > 100 µM (inactive).
On to `C/C(=C\COc1ccc2ccc(=O)oc2c1)C1=CC(=O)C(C)(C)O1` [GEIPARVARIN], for which the GI50 is 4.42 µM (inactive) in the test with DMS-273; 3.68 µM (inactive) in the test on T47D; 4.15 µM (inactive) in the test on SNB-78; 4.1 µM (inactive) in the test with XF498; 4.19 µM (inactive) in the test with DMS-114; 4.61 µM (inactive) in the test on M19-MEL. For the same molecule, in the test with HOP-18, the GI50 is 66.7 µM (inactive).
Regarding `COC(=O)[C@@H]1CCCCC[C@H]2C(CO)=C(C)C(=O)C12` (some centres undefined), the GI50 in the test with DMS-273, in the test with SNB-78, with LXFL 529, with XF498, with DMS-114 and in the test on M19-MEL was > 100 µM (inactive) throughout. In the test with HOP-18, the GI50 was > 100 µM (inactive).
As to `CC(C)=C=CC(C)(C)NS(=O)(=O)NC(C)(C)C=C=C(C)C`, the GI50 in the test on T47D is 15.7 µM (inactive).
`COc1ccc(C2c3cc4c(cc3OC(N3CCOCC3)C2C)OCO4)c(OC)c1` (centres undefined): in the test with T47D, the GI50 was 5.83 µM (inactive).
For the molecule `COc1nc(NC2OC(COC(C)=O)C(OC(C)=O)C(OC(C)=O)C2OC(C)=O)c(/N=C/C=N/c2c(NC3OC(COC(C)=O)C(OC(C)=O)C(OC(C)=O)C3OC(C)=O)nc(OC)[nH]c2=O)c(=O)[nH]1` (centres undefined), the GI50 in the test with LXFL 529, in the test on DMS-114, in the test on M19-MEL and with HOP-18 was > 100 µM (inactive) in each case.
As to `COc1cc(/C=C2\C(=O)N(c3ccc(NC(C)=O)cc3)C(c3ccccc3)S2(=O)=O)cc(OC)c1OC` (centres undefined), the GI50 in the test on T47D was 28.6 µM (inactive).
In the case of `Cc1nc2c(nc1C)-c1c(c3c(n1C)C(=O)CCC3)C(=O)C2=O`, the GI50 with T47D is 0.0697 µM (active).
Same read-out and setting: the value for `CCn1c(=O)c2c3ccc(O)cc3oc2c2ccc(O)cc21` was 18.1 µM (inactive); that for `COc1ccc2[nH]c3c(C)c4ncccc4c(C)c3c2c1` was > 10 µM (inactive).
As to `CC(=O)NNc1nc(C)c(C(=O)NNC(=O)C(=O)Nc2c(Cl)cc([N+](=O)[O-])cc2Cl)s1`, the GI50 is 32.6 µM (inactive) with DMS-273; 31.9 µM (inactive) with SNB-78; 33.7 µM (inactive) in the test with LXFL 529; 32.6 µM (inactive) in the test with DMS-114; 46.6 µM (inactive) with M19-MEL.
On to `CCN1c2ccccc2C(C(SC)S(=O)(=O)c2ccc(C)cc2)c2c1[nH]c(=O)n(C)c2=O` (centres undefined), for which the GI50 in the test with DMS-273, with SNB-78, in the test on LXFL 529, in the test on XF498, in the test on DMS-114 and with M19-MEL was > 100 µM (inactive) each time. The GI50 in the test with HOP-18 was 22.9 µM (inactive).
Take `CC(=O)c1ccc2c(c1)CC1(C2)Cc2ccc3c(c2C1=O)CCC3` (centres undefined): in the test on T47D, the GI50 is 12.5 µM (inactive).
With `O=C(NCCCCCCNC(=O)NC1OCC(O)C(O)C1O)NC1OCC(O)C(O)C1O` (centres undefined), the GI50 in the test with SNB-78, in the test with LXFL 529, in the test on DMS-114 and with M19-MEL was > 100 µM (inactive) throughout.
In the case of `O=C(O)Cc1cccnc1`, the GI50 in the test with T47D was > 100 µM (inactive).
As for `CSc1nc(C#N)c(/N=C\N(C)C)n1C`, the GI50 with T47D was > 100 µM (inactive).
As to `CC1C(O)Oc2cc3c(cc2C1c1ccccc1O)OCO3` (centres undefined), in the test with T47D, the GI50 is 30.4 µM (inactive).
For `N#Cc1ccc(Sc2nc3ccccc3[nH]2)cc1`, the GI50 is > 100 µM (inactive) in the test with DMS-273; > 100 µM (inactive) in the test with SNB-78; 46.7 µM (inactive) with LXFL 529; 65 µM (inactive) in the test with DMS-114; 86.1 µM (inactive) with M19-MEL; > 100 µM (inactive) in the test on HOP-18.
In the case of `COC(=O)CCC(=O)c1ccc2c(c1)CC1(Cc3ccccc3C1)C2`, the GI50 with T47D is 39.1 µM (inactive).
For `O=C(CC1S/C(=N\c2ccccc2Cl)NC1=O)Nc1ccc(Cl)cc1` (centres undefined), the GI50 in the test with DMS-273, in the test on SNB-78, in the test with LXFL 529, with DMS-114 and in the test on M19-MEL was > 100 µM (inactive) throughout.
As for `O=C1C[C@@H]2[C@@H](C=CC23CC3)N1O`, the GI50 in the test on DMS-273, in the test on SNB-78, in the test with LXFL 529, with M19-MEL and in the test with HOP-18 was > 100 µM (inactive) in each case.
Take `C=C(Cl)C(Cl)(CBr)CCCC(C)(C)Cl` (centres undefined): in the test on T47D, the GI50 was 1.8 µM (inactive).
As to `CSc1ncnc2c1cnn2Cc1cn(COCCO)nn1`, the GI50 with T47D is > 100 µM (inactive).
As to `Nc1ncnc2c1ncn2[C@@H]1C[C@H](NO)[C@@H](O)[C@H]1O`, the GI50 with T47D was > 100 µM (inactive).
On the same count and under the same terms, the value for `Cc1ccc(Cl)c2[nH]c(-c3ccccc3)cc(=O)c12` was 11.5 µM (inactive).
For `CCOC(=O)c1sc(N/N=C2\NC(=O)/C(=C/c3ccc([N+](=O)[O-])cc3)S2)nc1C`, in the test with T47D, the GI50 was 15.1 µM (inactive).
Turning to `ClCCC[Si]12OCCN(CCO1)CCO2`, the GI50 in the test with DMS-273, with SNB-78, with LXFL 529, with DMS-114 and in the test with M19-MEL was > 100 µM (inactive) each time.
For `COc1ccc(-c2cn3c(n2)sc2cc(C)ccc23)cc1`, the GI50 with T47D is 3.33 µM (inactive).
Consider `O=C1C2=Cc3ccccc3OC2(O)Oc2cc(O)ccc21` (centres undefined), for which the GI50 with T47D is > 100 µM (inactive).
As for `CN1CCN(c2ccc([N+](=O)[O-])c3no[n+]([O-])c23)CC1`, in the test with T47D, the GI50 was 0.0661 µM (active).
For the molecule `CC(=O)OC(C)C1C2=C(C(=O)CC1(C)O)C(=O)c1c(ccc(-c3ccc4c(c3O)C(=O)C3=C(C4=O)C(C(C)OC(C)=O)C(C)(O)CC3=O)c1O)C2=O` (centres undefined), the GI50 was 1.52 µM (inactive) in the test with DMS-273; 0.78 µM (active) in the test with T47D; 3.18 µM (inactive) in the test on SNB-78; 0.428 µM (active) with LXFL 529; 0.286 µM (active) in the test with DMS-114; 1.36 µM (inactive) in the test on M19-MEL. For the same molecule, the GI50 in the test with HOP-18 was 0.457 µM (active).
As to `CC1(CNCc2ccccc2)CC(CCc2ccccc2)N(C(=O)c2ccc([N+](=O)[O-])cc2)C1Cc1ccc(O)cc1` (centres undefined), the GI50 in the test with T47D was 5.32 µM (inactive).
Same read-out and setting: the value for `C=C(C)CCC1CCCCC(CN(C)C)C1=O` (centres undefined) was > 100 µM (inactive); that for `COc1cc(NCc2ccc3n2-c2ccccc2OC3)cc(OC)c1OC` was 37.2 µM (inactive).
Take `CC1(C)CCC(=O)NC1CC(=O)CC1NC(=O)CCC1(C)C` (centres undefined): in the test on T47D, the GI50 is > 100 µM (inactive).
With `COC(=O)C1CC(=O)CCC1c1ccccc1` (centres undefined), the GI50 in the test with DMS-273, with SNB-78, with LXFL 529, with DMS-114, in the test on M19-MEL and with HOP-18 was > 100 µM (inactive) each time.
For `CC(=O)OCC1=C(C)C(OC(=O)C(OC(C)=O)[C@@H](NC(=O)c2ccccc2)c2ccccc2)CCC1(C)C` (some centres undefined), the GI50 in the test with T47D was > 100 µM (inactive).
Turning to `CCn1c(-c2ccc(OC)cc2)nc2c1C(=O)c1ccccc1C2=O`, in the test with T47D, the GI50 was > 100 µM (inactive).
For the molecule `COCCOCCOC1=CC(=O)c2c(O)ccc(O)c2C1=O`, the GI50 with T47D is 1.82 µM (inactive).
Regarding `O=Cc1[nH]c(=O)[nH]c(=O)c1CCl`, in the test with T47D, the GI50 is > 100 µM (inactive).
Same read-out and setting: the value for `CCCCC(CCCC)=NNC(=S)SC` was 20 µM (inactive); that for `CC(NC(=N)N)C(=O)O` (centres undefined) was > 100 µM (inactive); that for `O=C1/C(=N/c2ccccc2)Oc2cc(O)ccc21` was > 100 µM (inactive).
For the molecule `COc1ccc2c(Cl)cc(NC(=S)Nc3ccccc3)nc2c1`, the GI50 in the test with T47D is 14.5 µM (inactive).
Regarding `CCN1C(=O)c2ccccc2C1(O)c1ccc(Cl)cc1` (centres undefined), in the test with T47D, the GI50 was 17.7 µM (inactive).
As for `CN(C)CCS/C(=N\c1ccccc1)n1cccc1`, the GI50 in the test on DMS-273 is 62.5 µM (inactive); in the test on SNB-78 it was 22.2 µM (inactive); in the test on LXFL 529 it was 42.7 µM (inactive); in the test on XF498 it was > 100 µM (inactive); in the test with DMS-114, 26.3 µM (inactive); in the test on M19-MEL it was 83.9 µM (inactive). Also, the GI50 with HOP-18 is > 100 µM (inactive).
Turning to `Cn1c2ccccc2c2ccc3c(c21)C(=O)c1ccc2c4ccccc4n(C)c2c1C3=O`, the GI50 in the test on T47D is > 100 µM (inactive).
Still for that read-out and setting: for `O=C(/C=C/c1ccc(O)c(O)c1)NC(COC(=O)/C=C/c1ccc(O)c(O)c1)C(=O)O` (centres undefined) the value was > 100 µM (inactive); for `Cc1cc(=O)oc2c(CNC(C(=O)O)C(C)O)c(O)ccc12` (centres undefined), > 100 µM (inactive).
Regarding `O=[N+]([O-])c1cc([N+](=O)[O-])c(Nn2c3ccccc3c3ccccc32)c([N+](=O)[O-])c1`, the GI50 with T47D was 0.641 µM (active).
On to `COP(=O)(OC)[C@@](O)(c1ccccc1)[C@@H](O)[C@H](O)c1ccccc1`, for which, in the test with T47D, the GI50 was > 100 µM (inactive).
In the case of `Oc1ccccc1/C=N/c1nc2cc3sc(/N=C/c4ccccc4O)nc3cc2s1`, the GI50 with T47D was > 61.1 µM (inactive).
Consider `COc1ccc(/C=C2\N=C(c3ccccc3)N(Nc3nnc(NN4C(=O)/C(=C/c5ccc(OC)cc5)N=C4c4ccccc4)c4ccccc34)C2=O)cc1`, for which the GI50 was 41.3 µM (inactive) with DMS-273; > 100 µM (inactive) in the test on SNB-78; 44.4 µM (inactive) in the test on LXFL 529; 61 µM (inactive) with DMS-114; 58.7 µM (inactive) in the test with M19-MEL; 92.3 µM (inactive) in the test on HOP-18.
On to `Clc1cc(Cl)c2ns[s+]c2c1Cl`, for which the GI50 with DMS-273 was > 100 µM (inactive); in the test with SNB-78 it was 0.158 µM (active); in the test with LXFL 529, > 100 µM (inactive); in the test on XF498, > 100 µM (inactive); in the test with M19-MEL, > 100 µM (inactive); with HOP-18, 78.3 µM (inactive).
